pIC50: −log10 of the molar value. Values after ≈ are worked out from the molar mass of the structure shown. Values joined by “and” are separate entries in the source; they are usually repeats but may differ in a detail not shown here. Equal entries are not always repeated.
Experiments:
S. aureus NCTC 8325 = test system: S. aureus NCTC 8325; design: method as in Le et al., Nat Chem. 2020; conditions: ref Le et al., Nat Chem. 2020; cited from earlier work
wt SpsB = target: T1, wt SpsB (Staphylococcus aureus, UniProt P0A070); experiment: FRET-based signal peptidase assay with membrane-bound SpsB (wt); format: biochemical, S. aureus; conditions: for wt A4 (normalized activity): replicates
T1 construct: recombinantly expressed full-length S. aureus SpsB (wt) or mutants; made in house; host or cells: E. coli BL21(DE3)pLysS, membrane fraction
Protocol: (§1) For preparation of E. coli membrane fractions harboring overexpressed S. aureus SpsB, E. coli BL21(DE3) pLysS cells harboring pET-55-DEST-fl-SpsB or respective mutant plasmids (F67A, Y75A, F158A, Q165A, F67A-Y75A, F67A-F158A, Y75A-F158A, F67A-Y75A-F158A) were grown in LB medium (supplemented with Ampicillin (100 µg/mL) and Chloramphenicol (34 µg/mL)) at 37°C (200 rpm) to OD600 ≈ 0.6 and protein overexpression was induced by the addition of isopropyl-1-thio-β-galactopyranoside (IPTG, 0.5 mM). After incubation (22 °C, 200 rpm, 3 h), cells were harvested by centrifugation (6000 × g, 4 °C, 10 min) and subsequently washed with PBS. The cell pellet was resuspended in 5 mL Tris-HCl buffer (50 mM, pH = 7.5) and lysed using a bead beater homogenizer (3 cycles: 5500 rpm for 45 s, 30 s cooling; Precellys Ceramic Kit CK01L, 7.0 mL tubes; Precellys 24 Homogenizer, Bertin Technologies). The lysate was centrifuged (12,000 × g, 4 °C, 10 min) to remove intact cells and debris. Membranes were collected from supernatant (39,000 × g, 4 °C, 75 min) and resuspended in ice-cold sodium phosphate buffer (50 mM, pH 7.5). Protein concentration was measured using the Pierce BCA Protein assay kit (Thermo Fisher Scientific, Pierce Biotechnology) and snap-frozen aliquots were stored at −80 °C.
(§2) Signal cleavage activities of recombinantly expressed full-length S. aureus SpsB (wt) or mutants (F67A, Y75A, F158A, Q165A, F67A-Y75A, F67A-F158A, Y75A-F158A, F67A-Y75A-F158A) in E. coli membranes were measured using a Förster Resonance Energy Transfer (FRET) assay as previously described[20],[36].
A synthetic peptide substrate based on SceD modified by 4-(4- dimethylaminophenylazo)benzoic (DABCYL) acid and 5-((2-aminoethyl)amino)-1- naphthalenesulfonic acid (EDANS) was used (DABCYL-[…]-EDANS, AnaSpec) as FRET substrate. Assays were performed with overexpressed wildtype SpsB (wt) or mutant (F67A, Y75A, F158A, Q165A, F67A-Y75A, F67A-F158A, Y75A-F158A, F67A-Y75A-F158A) in E. coli membranes. As controls for background activity, respective E. coli membranes without IPTG induction were used (see Experimental procedure “Preparation of E. coli membrane (control) fractions. Membranes containing recombinant wildtype SpsB or mutant (50 µg/mL membrane concentration, 100 µL/well final volume, sodium phosphate buffer, 50 mM, pH 7.5, addition of detergent if indicated; final concentrations in buffer: 0.1% CHAPS, 0.001% NP-40 or 0.1% Tween) were pre-treated with PK150, Arylomycin A4 or DMSO as a control (final concentration 1%) at 37 °C for 5 min. After addition of FRET substrate (10 µM final substrate concentration; final DMF concentration from substrate stock 1%), fluorescence turnover was monitored by an Infinite™ M Nano Tecan 200Pro reader (340 nm excitation and 510 nm emission wavelengths, fluorescence top reading mode) at 37 °C for at least 2 h.
The assay was performed in technical triplicates for at least three biologically independent experiments (n ≥ 3). Significance of cleavage activity was determined via a two-tailed Students t-test for comparison of membranes treated with DMSO to PK150.

SpsB F158A mutant = target: T2, SpsB F158A mutant (Staphylococcus aureus, UniProt P0A070, F158A); experiment: FRET-based signal peptidase assay with membrane-bound SpsB, F158A mutant; format: biochemical, S. aureus; conditions: for F158A A4 (normalized activity): replicates
T2 construct: recombinantly expressed full-length S. aureus SpsB (wt) or mutants; made in house; host or cells: E. coli BL21(DE3)pLysS, membrane fraction
T2 sequence (P0A070 1-191 F158A): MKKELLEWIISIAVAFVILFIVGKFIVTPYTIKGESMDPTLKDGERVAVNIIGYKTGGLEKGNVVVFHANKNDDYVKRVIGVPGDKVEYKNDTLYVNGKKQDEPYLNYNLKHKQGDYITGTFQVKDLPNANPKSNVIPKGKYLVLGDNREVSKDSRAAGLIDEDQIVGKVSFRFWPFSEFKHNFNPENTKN
Protocol: Cloning of full-length SpsB (fl-SpsB) was performed using the Invitrogen Gateway Technology in previous works by Le et al.. fl-SpsB was cloned into the destination vector pET-55-DEST (Novagen) and transformed into chemically competent E. coli BL21(DE3)pLysS cells (Promega) to prevent leaky protein overexpression. Plasmid DNA of wildtype SpsB pET-55-DEST-fl-SpsB was purified using a plasmid Miniprep Kit (peqGOLD Plasmid Miniprep Kit II, VWR Peqlab) according to the manufacturer’s instructions and used as template for all single point mutations (F67A, Y75A, F158A, Q165A). For double (F67A-Y75A, F67A-F158A, Y75A-F158A) or triple point (F67A-Y75A-F158A) mutations, the respective pET-55-DEST-fl-SpsB single point mutation or double point mutation plasmids were isolated and used as template for site-directed mutagenesis. Point mutation primers (Sigma) were designed based on the pET-55-dest-fl-SpsB construct according to the manufacturer’s instructions (Agilent). Primer sequences and order of point mutation introduction for all point mutations are listed in Supplementary Table S4. QuikChange site-directed mutagenesis PCR reactions were performed using either Phusion High-Fidelity DNA Polymerase (New England BioLabs, mutations: F67A, Q165A) or Q5 High-Fidelity DNA Polymerase (New England BioLabs, mutations: Y75A, F158A, F67A-Y75A, F67A-F158A, Y75A-F158A, F67A-Y75A-F158A) using the cycle listed below (Supplementary Table S5). The PCR mixture contained 10 µL GC buffer (NEB), 1 µL dNTP mix (10 mM), 1 µL forward primer (10 µM), 1 µL reverse primer (10 µM), 1 µL plasmid template (25 – 50 ng), 1.5 µL DMSO and 1 µL Phusion or Q5 High Fidelity DNA polymerase (NEB) and 33 µL ddH2O.
as §1, §2
A synthetic peptide substrate based on SceD modified by 4-(4- dimethylaminophenylazo)benzoic (DABCYL) acid and 5-((2-aminoethyl)amino)-1- naphthalenesulfonic acid (EDANS) was used (DABCYL-[…]-EDANS, AnaSpec) as FRET substrate. Assays were performed with overexpressed wildtype SpsB (wt) or mutant (F67A, Y75A, F158A, Q165A, F67A-Y75A, F67A-F158A, Y75A-F158A, F67A-Y75A-F158A) in E. coli membranes. […]

C#CCCC1(CCOC(=O)c2ccc(NC(=O)Nc3ccc(Cl)c(C(F)(F)F)c3)cc2)N=N1 [PK150-P, 2-(3-(But-3-inyl)-3H-diazirin-3-yl)ethyl4-(3-(4-Chloro-3trifluoromethylphenyl)ureido) benzoate]
MIC (S. aureus NCTC 8325): 1.0 µM (≈ 0.479 µg/mL)

CCC(C)CCCCCCCCC(=O)N(C)[C@H](CO)C(=O)N[C@H](C)C(=O)NCC(=O)N(C)C1C(=O)N[C@@H](C)C(=O)NC(C(=O)O)Cc2ccc(O)c(c2)-c2cc1ccc2O (stereo partly drawn) [Arylomycin A4]
activity observed (comment) (wt SpsB; >= 6.25 µM A4, wt): no activity observed >= 6.25 µM A4
wt A4 (normalized activity) (wt SpsB; A4 0.195uM): 45.9128 and 47.6989 and 41.1571 and 57.7909
wt A4 (normalized activity) (wt SpsB; A4 0.39uM): 29.005 and 27.5696 and 32.0075 and 46.11
wt A4 (normalized activity) (wt SpsB; A4 0.78uM): 22.2989 and 17.0381 and 18.021 and 27.9093
wt A4 (normalized activity) (wt SpsB; A4 1.5625uM): 12.8972 and 7.451 and 11.5505 and 15.4289
wt A4 (normalized activity) (wt SpsB; A4 3.125uM): 11.0377 and 3.5503 and 8.876 and 8.105
wt A4 (normalized activity) (wt SpsB; A4 0,006uM): 95.8032 and 76.7916 and 108.843
wt A4 (normalized activity) (wt SpsB; A4 6.25uM): 6.541 and -3.189 and 3.474 and 4.294
wt A4 (normalized activity) (wt SpsB; A4 0,012uM): 85.1742 and 80.5391 and 106.049
wt A4 (normalized activity) (wt SpsB; A4 12.5uM): 6.292
wt A4 (normalized activity) (wt SpsB; A4 0,024uM): 82.0951 and 107.605 and 99.2001
wt A4 (normalized activity) (wt SpsB; A4 25uM): 5.273
wt A4 (normalized activity) (wt SpsB; A4 0,048uM): 88.089 and 72.2661 and 88.1109
wt A4 (normalized activity) (wt SpsB; A4 50uM): 0
wt A4 (normalized activity) (wt SpsB; A4 0,097uM): 68.2227 and 67.6529 and 63.3355 and 86.9713
pIC50 (wt SpsB; wt): 6.68
activity observed (comment) (SpsB F158A mutant; >= 6.25 µM A4, F158A): no activity observed >= 6.25 µM A4
F158A A4 (normalized activity) (SpsB F158A mutant; A4 0,39µM): 32.4463 and 49.9171 and 42.4421 and 52.4288
F158A A4 (normalized activity) (SpsB F158A mutant; A4 0,78µM): 16.172 and 26.1385 and 26.2791 and 38.6178
F158A A4 (normalized activity) (SpsB F158A mutant; A4 0,006µM): 114.109 and 96.9597 and 113.52
F158A A4 (normalized activity) (SpsB F158A mutant; A4 0,012µM): 105.97 and 95.3486 and 96.5076
F158A A4 (normalized activity) (SpsB F158A mutant; A4 0,024µM): 106.863 and 85.3442 and 101.455
F158A A4 (normalized activity) (SpsB F158A mutant; A4 25uM): 1.625
F158A A4 (normalized activity) (SpsB F158A mutant; A4 0,049µM): 49.0532 and 88.7486 and 79.7833 and 90.4487
F158A A4 (normalized activity) (SpsB F158A mutant; A4 50uM): 0
F158A A4 (normalized activity) (SpsB F158A mutant; A4 0,097µM): 43.0655 and 77.8288 and 72.5853 and 85.1042
F158A A4 (normalized activity) (SpsB F158A mutant; A4 0,195µM): 35.3889 and 69.8941 and 59.8004 and 66.9013
F158A A4 (normalized activity) (SpsB F158A mutant; A4 3,125µM): 9.135 and 8.856 and 10.0772 and 7.1542
F158A A4 (normalized activity) (SpsB F158A mutant; A4 6,25µM): 5.328 and 0 (3×)
F158A A4 (normalized activity) (SpsB F158A mutant; A4 12,5uM): 3.344
F158A A4 (normalized activity) (SpsB F158A mutant; A4 1,5626µM): 13.3342 and 20.0153 and 23.1869 and 21.923
pIC50 (SpsB F158A mutant; F158A mutant): 6.64
